Here are results for one compound from article PMC8619641, “The Antileukemic Effect of Xestoquinone, A Marine-Derived Polycyclic Quinone-Type Metabolite, Is Mediated through ROS-Induced Inhibition of HSP-90” (Molecules, 2021).

Structures are written as SMILES.

This test deals with T1, topo IIα (Topo II) (Homo sapiens, UniProt P11388).
T1 construct: gene TOP2A
Nature of the test: cell-free supercoiled pHOT1 plasmid DNA relaxation assay. Type of test: biochemical.

T1 sequence (P11388 whole entry): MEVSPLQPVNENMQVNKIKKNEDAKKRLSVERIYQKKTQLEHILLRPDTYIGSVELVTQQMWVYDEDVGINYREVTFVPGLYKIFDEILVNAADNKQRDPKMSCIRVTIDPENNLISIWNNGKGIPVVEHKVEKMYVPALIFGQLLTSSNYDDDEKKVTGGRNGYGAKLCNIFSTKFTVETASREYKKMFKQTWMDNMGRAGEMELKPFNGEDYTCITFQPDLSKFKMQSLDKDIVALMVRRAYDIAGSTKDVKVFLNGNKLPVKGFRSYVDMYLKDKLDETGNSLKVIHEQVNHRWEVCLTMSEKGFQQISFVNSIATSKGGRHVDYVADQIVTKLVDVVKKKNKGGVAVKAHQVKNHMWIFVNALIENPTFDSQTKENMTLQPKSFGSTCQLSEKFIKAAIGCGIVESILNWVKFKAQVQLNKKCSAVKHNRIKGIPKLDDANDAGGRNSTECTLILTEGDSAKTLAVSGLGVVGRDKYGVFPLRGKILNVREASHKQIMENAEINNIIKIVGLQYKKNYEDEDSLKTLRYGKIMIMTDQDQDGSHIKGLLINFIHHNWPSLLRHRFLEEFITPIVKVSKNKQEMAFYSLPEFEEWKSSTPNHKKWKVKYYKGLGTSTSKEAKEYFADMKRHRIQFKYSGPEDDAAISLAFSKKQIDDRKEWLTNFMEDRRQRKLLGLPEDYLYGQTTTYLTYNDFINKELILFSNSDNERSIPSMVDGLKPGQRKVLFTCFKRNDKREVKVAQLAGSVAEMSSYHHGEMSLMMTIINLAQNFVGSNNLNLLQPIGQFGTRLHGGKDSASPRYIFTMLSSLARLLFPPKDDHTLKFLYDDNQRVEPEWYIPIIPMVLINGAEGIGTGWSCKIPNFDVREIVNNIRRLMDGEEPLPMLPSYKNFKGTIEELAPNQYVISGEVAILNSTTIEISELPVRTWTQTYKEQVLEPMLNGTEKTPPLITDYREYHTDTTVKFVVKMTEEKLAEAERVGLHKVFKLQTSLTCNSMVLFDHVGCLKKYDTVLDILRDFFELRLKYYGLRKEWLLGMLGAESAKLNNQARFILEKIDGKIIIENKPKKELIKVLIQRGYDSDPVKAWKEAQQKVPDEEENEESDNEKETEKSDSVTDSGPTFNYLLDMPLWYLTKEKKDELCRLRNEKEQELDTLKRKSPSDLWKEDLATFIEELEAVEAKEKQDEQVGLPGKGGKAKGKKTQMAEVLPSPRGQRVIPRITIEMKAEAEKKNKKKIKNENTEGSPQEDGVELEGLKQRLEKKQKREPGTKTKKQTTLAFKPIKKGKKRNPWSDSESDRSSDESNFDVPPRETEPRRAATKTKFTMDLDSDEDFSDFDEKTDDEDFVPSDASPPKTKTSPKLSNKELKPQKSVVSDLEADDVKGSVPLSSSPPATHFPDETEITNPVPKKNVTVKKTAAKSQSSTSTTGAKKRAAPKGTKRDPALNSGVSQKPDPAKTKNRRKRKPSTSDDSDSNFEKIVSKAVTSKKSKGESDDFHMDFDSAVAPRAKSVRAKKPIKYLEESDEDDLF

A word on the IC50: it is the point on the concentration scale where inhibition reaches its midpoint. High values mean weaker potency, low ones greater potency. For `C[C@@]12CCCc3coc(c31)C(=O)c1cc3c(cc12)C(=O)C=CC3=O` [XQ, xestoquinone], 94 nM corresponded to half-maximal inhibition (IC50).
